According to patent US20240409536A1, “COMPOUNDS AND METHODS FOR MODULATING SPLICING” (REMIX THERAPEUTICS INC., priority 2021, published 2024):
Where a name gives a salt, the structure may show the parent alone.

Columns and labels:
HTT mRNA = assay: Gene panel canonical junction qPCR assay, HTT CJ mRNA decrease; assay type: cell-based, human; details: Homo sapiens, canonical junction qPCR, read-out: HTT IC50 (decrease in CJ mRNA levels)
Summary of the method: (§1)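 A673 or K562 cells were treated with compound, and lysates underwent cDNA synthesis and qPCR with a CY5 5′-nuclease probe or primer spanning the canonical exon junction. ΔCt versus GAPDH, GUSB or PPIA was normalized to DMSO (2^(−ΔΔCt)), converted to percentage response and fitted four-parameter logistic for IC50.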

MYB mRNA = assay: Gene panel canonical junction qPCR assay, MYB CJ mRNA decrease; assay type: cell-based, human; details: Homo sapiens, canonical junction qPCR, read-out: MYB IC50 (decrease in CJ mRNA levels)
Summary of the method: as §1

Target C mRNA = assay: Gene panel canonical junction qPCR assay, Target C CJ mRNA decrease; assay type: cell-based; details: Homo sapiens, canonical junction qPCR, read-out: Target C IC50 (decrease in CJ mRNA levels)
Summary of the method: as §1

HiBiT-tagged HTT protein = assay: HiBiT protein abundance assay, HTT (K562 HiBiT knock-in cells); assay type: cell-based, human; details: 24 hours
Summary of the method: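 K562 cells with endogenous HiBiT knock-in tag, 10-point 3-fold dilutions (top 10 μM final, ≤0.25% DMSO), 24 h at 37 °C. Lytic Nano-Glo HiBiT luminescence, normalized to DMSO and unmodified K562 baselines; IC50 is concentration giving 50% protein abundance from four-parameter fit.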

Row | Structure (SMILES) | IC50 (HTT mRNA) [nM] | IC50 (MYB mRNA) [nM] | IC50 (Target C mRNA) [µM] | IC50 (HiBiT-tagged HTT protein) [nM]
1 | CCNC1CCN(c2ccc(C(=O)Nc3cc(F)c4nc(C)cn4c3)c3nccnc23)CC1 [Compound 191, 8-[4-(ethylamino)piperidin-1-yl]-N-{8-fluoro-2-methylimidazo[1,2-a]pyridin-6-yl}quinoxaline-5-carboxamide] | 100 to 1000 | < 100 | > 10 | 100 to 1000
2 | Cc1cn2cc(NC(=O)c3ccc(C4CCNC5(CC5)C4)c4nccnc34)cc(F)c2n1 (centres unmarked) [Compound 375] | 1000 to 10000 | 100 to 1000 | 1 to 10 | 1000 to 10000
3 | COc1cc(NC(=O)c2ccc(N3CCNCC3)c3ccnnc23)cn2cc(C)nc12 [Compound 176, N-{8-methoxy-2-methylimidazo[1,2-a]pyridin-6-yl}-5-(piperazin-1-yl)cinnoline-8-carboxamide trifluoroacetate] | > 10000 | 100 to 1000 | > 10 | 1000 to 10000
4 | CCNC1CCN(c2ccc(C(=O)Nc3cc(F)c4nc(C)sc4c3)c3nnccc23)CC1 [Compound 221, 5-[4-(ethylamino)piperidin-1-yl]-N-(4-fluoro-2-methyl-1,3-benzothiazol-6-yl)cinnoline-8-carboxamide] | 1000 to 10000 | 1000 to 10000 | 1 to 10 | 1000 to 10000
5 | Cc1cn2nc(NC(=O)c3ccc(N4CCNCC4)c4ccnnc34)cc(C)c2n1 [Compound 100] | 100 to 1000 | 100 to 1000 | 0.1 to 1 | 100 to 1000
6 | Cc1cn2cc(NC(=O)c3ccc(N4C[C@@H](C)N[C@@H](C)C4)c4ccnnc34)cc(F)c2n1 [Compound 161, 5-(3,5-dimethylpiperazin-1-yl)-N-{8-fluoro-2-methylimidazo[1,2-a]pyridin-6-yl}cinnoline-8-carboxamide 2,2,2-trifluoroacetate] | 1000 to 10000 | < 100 | 1 to 10 | 1000 to 10000
7 | CNC1CCN(c2ccc(C(=O)Nc3cc(F)c4nc(C)cn4c3)c3nc(OC)cnc23)C1 (centres unmarked) [Compound 202, N-{8-fluoro-2-methylimidazo[1,2-a]pyridin-6-yl}-3-methoxy-8-[3-(methylamino)pyrrolidin-1-yl]quinoxaline-5-carboxamide; bis(trifluoroacetic acid)] | > 10000 |  | > 10 | 1000 to 10000

The remaining lines, values ahead:

Row | IC50 (HTT mRNA) [nM] | IC50 (MYB mRNA) [nM] | IC50 (Target C mRNA) [µM] | IC50 (HiBiT-tagged HTT protein) [nM] | Structure (SMILES)
8 | 100 to 1000 | < 100 | 1 to 10 | 100 to 1000 | Cc1cc2c(N3CCNCC3)ccc(C(=O)Nc3cc(F)c4nc(C)cn4c3)c2nn1 [Compound 159]
9 | 1000 to 10000 | < 100 | > 10 | 100 to 1000 | COc1cc2c(N3CCNCC3)ccc(C(=O)Nc3cc(F)c4nc(C)cn4c3)c2nn1 [Compound 183, N-{8-fluoro-2-methylimidazo[1,2-a]pyridin-6-yl}-3-methoxy-5-(piperazin-1-yl)cinnoline-8-carboxamide]
10 | 100 to 1000 | < 100 | 1 to 10 | 1000 to 10000 | Cc1cn2cc(NC(=O)c3ccc(N4CCN5CCC[C@@H]5C4)c4ccnnc34)cc(F)c2n1 [Compound 153]
11 | > 10000 | < 100 | > 10 | > 10000 | COc1cnc2c(C(=O)Nc3cc(F)c4nc(C)cn4c3)ccc(N3CCNCC3)c2n1 [Compound 225, N-{8-fluoro-2-methylimidazo[1,2-a]pyridin-6-yl}-2-methoxy-8-(piperazin-1-yl)quinoxaline-5-carboxamide]
12 | 1000 to 10000 | < 100 | > 10 | 1000 to 10000 | CC[C@@H]1CN(c2ccc(C(=O)Nc3cc(F)c4nc(C)cn4c3)c3nnccc23)CCN1 [Compound 151]
13 | 1000 to 10000 | < 100 |  | 1000 to 10000 | CCC1CN(c2ccc(C(=O)Nc3cc(F)c4nc(C)cn4c3)c3nnccc23)CCN1 (centres unmarked) [Compound 130]
